Laboratory results as given in a melting point compilation (Tetko et al.; mined from patent text by program, amines drawn as free bases though some values may be those of a salt).

| SMILES | melting point [°C] |
| --- | --- |
| CCc1c(C(=O)O)oc2ccc(Br)cc12 | 240 to 242 |
| COc1ccc(-c2nc3n(c2-c2ccccc2)Cc2ccccc2C3)cc1 | 172 to 173 |
| CN(Cc1cc(C(F)(F)F)cc(C(F)(F)F)c1)C(=O)c1ncc2ccccc2c1-c1ccccc1 | 139 to 140 |
| O=C1c2c(Cl)cccc2-n2cnc(C#Cc3ccccc3)c2[C@@H]2CCCN12 | 241 to 242 |
| C[C@@H](NC(=O)c1ccc(-c2ccc(Cl)cc2)s1)[C@](O)(Cn1cncn1)c1ccc(F)cc1F | 169 to 170 |
| CCOC(=O)C(NC(=O)CNC(=O)CC)C(=O)OCC | 120 to 122 |
| Nc1nc(-c2cc(-c3c(F)cccc3Cl)no2)cs1 | 168 to 169 |
| COC(=O)c1ccc2nc(SCCN3CCN(CC(=O)Nc4c(C(C)C)cccc4C(C)C)CC3)oc2c1C(=O)OC | 186 to 187 |
| CN1CN(C)C(=N[N+](=O)[O-])N(Cc2ccc(Cl)nc2)C1 | 116 to 117 |
| CC(=O)OC1CC2(C)C(CCC2(O)C(C)=O)C2CCC3=CC(=O)CCC3(C)C12 (configuration not stated) | 160 |
| COC(C)CCOc1c(-c2ccc(S(C)(=O)=O)cc2)cnn(-c2ccc(F)c(F)c2)c1=O (configuration not stated) | 99 to 101 |
| CCCCN=C(O)c1c(Sc2ccccc2)c(Sc2ccccc2)c(Sc2ccccc2)c(Sc2ccccc2)c1C(=O)O | 159 to 160 |
| COc1cccc2nc(-c3cc(C)c(OCCN4CCCC4)c(C)c3)[nH]c(=O)c12 | 157 to 158 |
| Cc1nnc2ccc(-c3cccc(C(F)(F)F)c3)cn12 | 185 to 187 |
| CC(CO)c1ccc(-c2ccc(F)cc2F)c(O)c1 (configuration not stated) | 118 |
| CCOC(=O)Cc1nc(-c2ccccc2)oc1-c1ccoc1 | 84 to 85 |
| O=C(NN=Cc1ccncc1)OC(c1ccccc1)c1ccccc1 | 159 to 160 |
| COC(=O)[C@@H]1[C@H](c2ccccc2)CC(=O)N1C | 100 |
| CC(C)(CO)C(O)(Cn1cncn1)c1ccc(F)cc1F (single isomer, unassigned; (+)) | 116 to 118 |
| COC(=O)CCc1ncc(O)c(C(=O)OC)c1C(=O)OC | 66 to 67 |
| Cc1ccccc1NS(=O)(=O)c1cc(S(=O)(=O)Nc2ccccc2C)c2ccccc2c1O | 220 to 222 |
| COc1cccc(C2(O)CCC(=O)CC2)c1 | 105 to 108 |
| Cc1oc(-c2ccco2)nc1COc1ccc(COc2nn(-c3ccccc3)cc2C#N)cc1 | 158 to 159 |

| SMILES | melting point [°C] |
| --- | --- |
| O=C1N=C(N2CCCCC2)SC1=Cc1cccc(-c2ccc(O)c(C34CC5CC(CC(C5)C3)C4)c2)c1 | 311 to 312 |
| COc1ccc(Nc2nc(NC3CCCCCC3)nc(Oc3ccc(C=O)cc3)n2)cc1Cl | 218 to 220 |
| Nc1ccc(Oc2ccc(C34CC5CC(C3)CC(c3ccc(Oc6ccc(N)c(O)c6)cc3)(C5)C4)cc2)cc1O | 166 to 169 |
| COc1cc2c(nc1OC)c(-c1cc3c(Cl)c(F)cnc3[nH]1)cn2CCN1CCOCC1 | 206 |
| CCCCNC(=O)Cc1ccc2c(c1)c(Cc1ccc(C(=O)O)cc1OC)cn2C | 92 to 95 |
| COCc1cc2c(N)cccc2cn1 | 105 |
| CCOc1ccc(OCC(N)=O)c(C(Nc2ccc(C(=N)N)cc2)C(=O)O)c1 (racemic) | 266 |
| CCCN(CCC)C1Cc2cc3c(=O)[nH][nH]c(=O)c3cc2C1 | > 300 |
| CCCCc1ccc(CNc2cc(C(=O)Nc3ccccc3)ccc2OC)cc1 | 171 to 173 |
| CC(C)(C)OC(=O)[C@H](CCSCc1cn(C(c2ccccc2)(c2ccccc2)c2ccccc2)cn1)NC(=O)OCc1ccccc1 | 183 to 185 |
| COc1cc(C=Cc2ccccc2)cc(OC)c1OC | 108 |
| COC(=O)c1ccc(CN2CCOc3ccc(NC(=O)CC4CCCC4)cc32)c(OC)c1 | 152 to 153 |
| O=C(Cl)c1sc2ccc(Oc3ccccc3)cc2c1Cl | 117 to 119 |
| CN1CC2(COc3cc4c(cc32)OCO4)c2c(Br)cccc21 (configuration not stated) | 155 to 157 |
| COCCNC(=O)c1cccc(-c2ccc3c(c2)N(c2cccc(Cl)c2Cl)CC3)c1 | 99 to 100 |
| O=C(N[C@@H](CSC(=O)c1ccccc1)C(=O)N[C@@H](Cc1c[nH]c2ccccc12)C(=O)O)c1ccccc1 | 175 to 178 |
| CC(=C=CC(=O)O)c1ccc(Cl)cc1 | 146 to 148 |
| CNC(=O)n1nc(Oc2ccc([N+](=O)[O-])cc2C(F)(F)F)c(C)c1C | 113 to 115 |
| NCc1ccc(Br)nc1 | 57 to 58 |
| CC(=O)NC1C(NC(=N)N)C=C(C(=O)O)OC1C(OC(=O)NCCCO)C(O)CO (configuration not stated) | 265 to 267 |
| CCCNC(=O)c1cccc(-c2cc(-c3ccccc3O)nc(NC(=O)c3cccs3)c2C#N)c1 | 245 to 246 |
| COc1ccc(C(=O)Nc2cc(NC(=O)c3cccc(NC(C)=O)c3)ccc2C)cc1OC | 187 to 188 |
| COc1cc(Cc2cnc(N)nc2N)cc2c1OC(C)(C)C=C2c1cccc([N+](=O)[O-])c1 | 253 to 254 |

| SMILES | melting point [°C] |
| --- | --- |
| COc1ccc(C#N)c2c1OC1(COCC1OC)C2 (configuration not stated) | 151 to 156 |
| COc1cccc(C(=O)N(C)Cc2cccc(-c3ccc(CC4SC(=O)NC4=O)cc3)c2)c1 (configuration not stated) | 173 |
| N#Cc1cccc(/C=C/c2cc(Cl)cnc2N)c1 | > 275 |
| CCOc1cc(=O)n(C)c2ccccc12 | 80 to 82 |
| CCn1cc(C(=O)O)c(=O)c2cc(F)c(N3Cc4ccc(N)cc4C3)cc21 | > 300 |
| COc1ccc(C2=C(C=O)CCc3cc(OC)ccc32)cc1 | 104 to 105 |
| CC(C)(C)OC(=O)N1CCC[C@@H](OC(=O)c2ccc(OC(C)(C)C)cc2)[C@H](NC(=O)c2ccc(OC(C)(C)C)cc2)C1 | 126 to 128 |
| CCc1cc(C(=O)c2ccccc2Cl)c(-n2cnnc2CNC(=O)c2ccc(Cl)c(Cl)c2)s1 | 158 to 160 |
| CSc1nc(P(=O)(C2CCCCC2)C2CCCCC2)cc(P(=O)(C2CCCCC2)C2CCCCC2)n1 | 197 to 198 |
| COc1ccc(COc2cc(N)c(Cl)cc2C(=O)CCCCN2CCCCC2)cc1OC | 120 to 122 |
| COc1nc2ccc([N+](=O)[O-])cc2nc1Cl | 155 to 158 |
| COc1ccnc(CS(=O)c2nc3cc4c(cc3[nH]2)OC(F)(F)O4)c1 (configuration not stated) | 184 to 185 |
| CS(=O)(=O)Nc1cc([C@@H](O)CNC2CCN(c3ccc(NC(=O)c4ccc5c(c4)OCO5)cc3)CC2)ccc1O | 104 to 113 |
| NCCOc1cccc2c1c1cccc(F)c1n2Cc1ccccc1 | 122 to 123 |
| COC(=O)C(Br)(C1=NCCCS1)[N+](=O)[O-] (configuration not stated) | 88.5 to 93 |
| CCOc1ccccc1C=[N+]([O-])C1CCC1 | 76 |
| COc1ccccc1[C@H](c1cccc2ccccc12)[C@@](C)(C#N)C(=O)N1CCC(C2CCCC(C(F)(F)F)C2)CC1 (some centres not stated) | 160 to 165 |
| Cc1ccc(S(=O)(=O)Nc2nc(-c3cccc([N+](=O)[O-])c3)cs2)cc1 | 187 to 189 |
| COc1cc(C(O)(C(F)(F)F)C(F)(F)F)cc(C)c1O | 44 to 45 |
| CNC(=O)c1cc(-c2ccc(OC)cc2)nn(Cc2ccc(Cl)cc2Cl)c1=O | 154 to 156 |
| CCOC(=O)Cc1nc(-c2ccc(Cl)cc2)oc1C | 69 to 70 |
